# Earlier results, collected in patent publication EP4541846A1, “ENCAPSULANT FILM COMPOSITION, AND ENCAPSULANT FILM COMPRISING SAME” (LG Chem, Ltd., priority 2022, dated 2024).
# Where a name gives a salt, the structure may show the parent alone.
# Conditions: marked by acute toxicity, oral/acute toxicity, percutaneous/skin corrosivity/skin irritation/severe eye damage/eye irritation/dermal hypersensitivity, or the like
row,Compound,harmfulness/dangerousness classification in SDS
1,C=CCOC(=O)/C=C\C(=O)OCC=C [diallyl maleate],harmful
2,C=CCOC(=O)OC(=O)OCC=C [diallyl decarbonate],harmful
3,C=CCOC(=O)/C=C/C(=O)OCC=C [diallyl fumarate],harmful
